The target of this assay is Glutathione S-transferase omega-1 (Homo sapiens) (UniProt P78417). Kind of assay: IC50 of human GSTO1 inhibition by gel ABPP – biochemical, SE-Rh probe, in-gel fluorescence, powder samples, late-stage follow-up (AID 463081). To be noted: recombinant GSTO1, SE-Rh probe labeling.

pIC50: −log10 of the molar value.

Glutathione S-transferase omega-1 (Homo sapiens), sequence (P78417 whole entry, looked up): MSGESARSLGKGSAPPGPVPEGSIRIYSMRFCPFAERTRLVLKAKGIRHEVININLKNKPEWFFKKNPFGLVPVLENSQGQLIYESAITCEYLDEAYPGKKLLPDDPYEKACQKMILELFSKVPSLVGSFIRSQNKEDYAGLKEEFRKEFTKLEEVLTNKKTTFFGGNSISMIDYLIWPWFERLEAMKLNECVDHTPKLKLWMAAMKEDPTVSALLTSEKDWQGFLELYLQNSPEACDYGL

Regarding `COc1ccc(C(C(=O)NC2CCCCC2)N(C(=O)CCl)c2ccc(Cl)cc2)cc1` (stereo unspecified), the pIC50 (commonly the negative decadic logarithm of the IC50, by convention in mol/L) was 7.66.
